From patent US20250059164A1, “IRAK DEGRADERS AND USES THEREOF” (Kymera Therapeutics, Inc., priority 2023, published 2025) come the findings set out here.

The term DC50 denotes the concentration giving 50% degradation. High values mean a less potent degrader, low ones a more potent degrader. As usually defined, the bioavailability is the share of a dose that reaches the circulation, judged against a reference dose that is usually intravenous.

The target of the first data set is T1, IRAK4 (Homo sapiens, UniProt Q9NWZ3).
T1 construct: endogenous in cells; host or cells: OCI-LY10
T1 sequence (Q9NWZ3 1-460): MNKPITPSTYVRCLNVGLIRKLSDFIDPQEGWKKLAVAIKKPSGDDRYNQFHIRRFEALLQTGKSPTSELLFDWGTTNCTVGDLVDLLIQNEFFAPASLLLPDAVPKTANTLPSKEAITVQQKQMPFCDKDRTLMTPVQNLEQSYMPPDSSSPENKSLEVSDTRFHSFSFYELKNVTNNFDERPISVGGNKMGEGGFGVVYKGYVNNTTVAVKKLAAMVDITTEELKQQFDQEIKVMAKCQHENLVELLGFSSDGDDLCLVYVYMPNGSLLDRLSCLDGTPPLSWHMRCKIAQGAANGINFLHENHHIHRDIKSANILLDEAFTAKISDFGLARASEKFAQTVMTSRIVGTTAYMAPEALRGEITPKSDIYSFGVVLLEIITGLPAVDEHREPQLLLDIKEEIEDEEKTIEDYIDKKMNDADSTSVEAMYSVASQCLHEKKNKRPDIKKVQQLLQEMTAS
As to the kind of experiment: IRAK4 MSD degradation in OCI-LY10. The format is cell-based. The note with it: OCI-LY10 cells, 24 hrs, Meso Scale Discovery. The gist of the method: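 OCI-LY10 cells treated 4 to 24 hours at 37° C. with 8-dose 1:3 series, top 1 to 10 μM. IRAK4 in lysates quantified by MSD sandwich immunoassay (mouse capture, rabbit detection, SULFO-TAG anti-rabbit). DC50 from three-parameter logistic fit.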
As to `Cn1c(=O)n(C2CCC(=O)NC2=O)c2cccc([C@@H]3CCN(C[C@H]4CC[C@H](c5nc6cc(C(C)(C)O)c(NC(=O)c7cncc(C(F)(F)F)n7)cc6o5)CC4)C[C@H]3F)c21` (stereo partly shown) [I-288], the DC50 was less than 10 nM.
On the same count and under the same terms, the result for `COc1cc2nn([C@H]3CC[C@H](CN4CC[C@@H](c5cccc6c5n(C)c(=O)n6C5CCC(=O)NC5=O)[C@H](F)C4)CC3)cc2cc1C(=O)Nc1cncc(C(F)(F)F)n1` (stereo partly shown) [I-290] reads less than 10 nM; that for `Cn1c(=O)n(C2CCC(=O)NC2=O)c2cccc([C@@H]3CCN(C[C@H]4CC[C@H](n5cc6cc(NC(=O)c7cncc(C(F)(F)F)n7)c(F)cc6n5)CC4)C[C@H]3F)c21` (stereo partly shown) [I-296], less than 10 nM; that for `O=C1CCN(c2cc(C(=O)N3CCN(C[C@H]4CC[C@H](n5cc6cc(NC(=O)c7cncc(C(F)(F)F)n7)ccc6n5)CC4)CC3)ncc2Cl)C(=O)N1` [I-305], more than 200 nM.
Same read-out and setting: next, `Cc1cncc(C(=O)Nc2ccc3nn([C@H]4CC[C@H](CN5CC[C@@H](c6cccc7c6n(C)c(=O)n7C6CCC(=O)NC6=O)[C@H](F)C5)CC4)cc3c2)n1` (stereo partly shown) [I-307]: less than 10 nM; `COc1cc2nc([C@H]3CC[C@H](CN4CC[C@@H](c5cccc6c5n(C)c(=O)n6C5CCC(=O)NC5=O)[C@H](F)C4)CC3)cn2cc1NC(=O)c1cncc(C(F)(F)F)n1` (stereo partly shown) [I-308]: less than 10 nM.
On the same count and under the same terms, the result for `Cc1cncc(C(=O)Nc2cc3cn([C@H]4CC[C@H](CN5CC[C@@H](c6cccc7c6n(C)c(=O)n7C6CCC(=O)NC6=O)[C@H](F)C5)CC4)nc3cn2)n1` (stereo partly shown) [I-310] reads less than 10 nM; that for `Cn1c(=O)n(C2CCC(=O)NC2=O)c2cccc([C@@H]3CCN(C[C@H]4CC[C@H](n5cc6cc(NC(=O)c7cncc(C8CC8)n7)ccc6n5)CC4)C[C@H]3F)c21` (stereo partly shown) [I-311], less than 10 nM.
With `Cc1nn(C2CCC(=O)NC2=O)c2cccc(N3CCC4(CCN(C[C@H]5CC[C@H](n6cc7cc(NC(=O)c8cncc(C#N)c8)c(C(C)(C)O)cc7n6)CC5)CC4(F)F)CC3)c12` (stereo partly shown) [I-312], the DC50 is 10 to 100 nM.
In turn, `Cn1c(=O)n(C2CCC(=O)NC2=O)c2cccc([C@@H]3CCN(C[C@H]4CC[C@H](n5cc6cc(NC(=O)c7cncc(C(F)F)n7)ncc6n5)CC4)C[C@H]3F)c21` (stereo partly shown) [I-321] displayed a DC50 of less than 10 nM.
In turn, `Cn1c(=O)n(C2CCC(=O)NC2=O)c2cccc([C@@H]3CCN(C[C@H]4CC[C@H](n5cc6cc(NC(=O)c7cncc(C(C)(C)C)n7)ncc6n5)CC4)C[C@H]3F)c21` (stereo partly shown) [I-322] came in with a DC50 of less than 10 nM.
Still for that read-out and setting: the result for `Cn1c(=O)n(C2CCC(=O)NC2=O)c2cccc([C@@H]3CCN(C[C@H]4CC[C@H](n5cc6cc(NC(=O)c7cncc(C(F)F)n7)ccc6n5)CC4)C[C@H]3F)c21` (stereo partly shown) [I-323] reads less than 10 nM.
Same read-out and setting: next, `Cn1c(=O)n(C2CCC(=O)NC2=O)c2cccc([C@@H]3CCN(C[C@H]4CC[C@H](n5cc6cc(NC(=O)c7cncc(C(C)(C)C)n7)ccc6n5)CC4)C[C@H]3F)c21` (stereo partly shown) [I-324]: less than 10 nM.
`Cn1c(=O)n(C2CCC(=O)NC2=O)c2cccc(N3CC4(CCN(C[C@H]5CC[C@H](n6cc7cc(NC(=O)c8cncc(C(F)(F)F)n8)c(C(C)(C)O)cc7n6)CC5)CC4(F)F)C3)c21` (stereo partly shown) [I-326] came in with a DC50 of less than 10 nM.
On the same count and under the same terms, next, `Cn1c(=O)n(C2CCC(=O)NC2=O)c2cccc([C@@H]3CCN(C[C@H]4CC[C@H](n5cc6cc(NC(=O)c7cncc(OC(F)F)n7)ncc6n5)CC4)C[C@H]3F)c21` (stereo partly shown) [I-337]: less than 10 nM.
Still for that read-out and setting: the result for `Cn1c(=O)n(C2CCC(=O)NC2=O)c2cccc([C@@H]3CCN(C[C@H]4CC[C@H](n5cc6cc(NC(=O)c7cncc(C8CC8)n7)ncc6n5)CC4)C[C@H]3F)c21` (stereo partly shown) [I-338] reads less than 10 nM; that for `Cn1c(=O)n(C2CCC(=O)NC2=O)c2cccc([C@@H]3CCN(C[C@H]4CC[C@H](n5cc6cc(NC(=O)c7cncc(OC(F)F)n7)ccc6n5)CC4)C[C@H]3F)c21` (stereo partly shown) [I-339], less than 10 nM.

System in the next data set: not listed separately
Description: Rodent pharmacokinetics (rat PK). Format: in vivo. The note with it: po, dosed intravenously or orally by gavage, plasma, read-out: F % (bioavailability). The gist of the method:
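Rats were dosed IV or by oral gavage, with jugular blood taken predose and at 5 min (IV only), 15, 30 min and 1, 2, 4, 8, 24 h. Plasma was separated by centrifugation at 4 °C. Oral bioavailability (F %) is coded A (≥5%) or B (≤5%).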
In the case of `Cn1c(=O)n(C2CCC(=O)NC2=O)c2cccc([C@@H]3CCN(C[C@H]4CC[C@H](c5nc6cc(C(C)(C)O)c(NC(=O)c7cncc(C(F)(F)F)n7)cc6o5)CC4)C[C@H]3F)c21` (stereo partly shown) [I-288], the bioavailability was not below 5%.
Same read-out and setting: the result for `COc1cc2nn([C@H]3CC[C@H](CN4CC[C@@H](c5cccc6c5n(C)c(=O)n6C5CCC(=O)NC5=O)[C@H](F)C4)CC3)cc2cc1C(=O)Nc1cncc(C(F)(F)F)n1` (stereo partly shown) [I-290] reads not above 5%; that for `Cn1c(=O)n(C2CCC(=O)NC2=O)c2cccc([C@@H]3CCN(C[C@H]4CC[C@H](n5cc6cc(NC(=O)c7cncc(C(F)(F)F)n7)c(F)cc6n5)CC4)C[C@H]3F)c21` (stereo partly shown) [I-296], not above 5%; that for `O=C1CCN(c2cc(C(=O)N3CCN(C[C@H]4CC[C@H](n5cc6cc(NC(=O)c7cncc(C(F)(F)F)n7)ccc6n5)CC4)CC3)ncc2Cl)C(=O)N1` [I-305], not above 5%.
The same measure, in the same setting: the result for `Cc1cncc(C(=O)Nc2ccc3nn([C@H]4CC[C@H](CN5CC[C@@H](c6cccc7c6n(C)c(=O)n7C6CCC(=O)NC6=O)[C@H](F)C5)CC4)cc3c2)n1` (stereo partly shown) [I-307] reads not above 5%.
On to `COc1cc2nc([C@H]3CC[C@H](CN4CC[C@@H](c5cccc6c5n(C)c(=O)n6C5CCC(=O)NC5=O)[C@H](F)C4)CC3)cn2cc1NC(=O)c1cncc(C(F)(F)F)n1` (stereo partly shown) [I-308], for which the bioavailability is not above 5%.
On to `Cc1cncc(C(=O)Nc2cc3cn([C@H]4CC[C@H](CN5CC[C@@H](c6cccc7c6n(C)c(=O)n7C6CCC(=O)NC6=O)[C@H](F)C5)CC4)nc3cn2)n1` (stereo partly shown) [I-310], for which the bioavailability is not above 5%.
The same measure, in the same setting: the result for `Cn1c(=O)n(C2CCC(=O)NC2=O)c2cccc([C@@H]3CCN(C[C@H]4CC[C@H](n5cc6cc(NC(=O)c7cncc(C8CC8)n7)ccc6n5)CC4)C[C@H]3F)c21` (stereo partly shown) [I-311] reads not above 5%; that for `Cc1nn(C2CCC(=O)NC2=O)c2cccc(N3CCC4(CCN(C[C@H]5CC[C@H](n6cc7cc(NC(=O)c8cncc(C#N)c8)c(C(C)(C)O)cc7n6)CC5)CC4(F)F)CC3)c12` (stereo partly shown) [I-312], not above 5%; that for `Cn1c(=O)n(C2CCC(=O)NC2=O)c2cccc([C@@H]3CCN(C[C@H]4CC[C@H](n5cc6cc(NC(=O)c7cncc(C(F)F)n7)ncc6n5)CC4)C[C@H]3F)c21` (stereo partly shown) [I-321], not above 5%.
Still for that read-out and setting: next, `Cn1c(=O)n(C2CCC(=O)NC2=O)c2cccc([C@@H]3CCN(C[C@H]4CC[C@H](n5cc6cc(NC(=O)c7cncc(C(C)(C)C)n7)ncc6n5)CC4)C[C@H]3F)c21` (stereo partly shown) [I-322]: not above 5%.
Same read-out and setting: the result for `Cn1c(=O)n(C2CCC(=O)NC2=O)c2cccc([C@@H]3CCN(C[C@H]4CC[C@H](n5cc6cc(NC(=O)c7cncc(C(F)F)n7)ccc6n5)CC4)C[C@H]3F)c21` (stereo partly shown) [I-323] reads not above 5%; that for `Cn1c(=O)n(C2CCC(=O)NC2=O)c2cccc([C@@H]3CCN(C[C@H]4CC[C@H](n5cc6cc(NC(=O)c7cncc(C(C)(C)C)n7)ccc6n5)CC4)C[C@H]3F)c21` (stereo partly shown) [I-324], not above 5%.
Consider `Cn1c(=O)n(C2CCC(=O)NC2=O)c2cccc(N3CC4(CCN(C[C@H]5CC[C@H](n6cc7cc(NC(=O)c8cncc(C(F)(F)F)n8)c(C(C)(C)O)cc7n6)CC5)CC4(F)F)C3)c21` (stereo partly shown) [I-326], for which the bioavailability is not below 5%.
Take `Cn1c(=O)n(C2CCC(=O)NC2=O)c2cccc([C@@H]3CCN(C[C@H]4CC[C@H](n5cc6cc(NC(=O)c7cncc(OC(F)F)n7)ncc6n5)CC4)C[C@H]3F)c21` (stereo partly shown) [I-337]: the bioavailability was not above 5%.
Turning to `Cn1c(=O)n(C2CCC(=O)NC2=O)c2cccc([C@@H]3CCN(C[C@H]4CC[C@H](n5cc6cc(NC(=O)c7cncc(C8CC8)n7)ncc6n5)CC4)C[C@H]3F)c21` (stereo partly shown) [I-338], the bioavailability was not above 5%.
As for `Cn1c(=O)n(C2CCC(=O)NC2=O)c2cccc([C@@H]3CCN(C[C@H]4CC[C@H](n5cc6cc(NC(=O)c7cncc(OC(F)F)n7)ccc6n5)CC4)C[C@H]3F)c21` (stereo partly shown) [I-339], the bioavailability is not above 5%.
